From publication PMC7948479, “Allostery in the nitric oxide dioxygenase mechanism of flavohemoglobin” (The Journal of Biological Chemistry, 2020)

Legend:
flavoHb-NOD = target: T1, flavoHb-NOD (Escherichia coli, UniProt P24232); assay: H2O2 sensitivity of the flavoHb-NOD; assay type: biochemical; conditions: for protection of flavoHb-NOD against H2O2: resting state, 2 mM ascorbate or 10 µM miconazole
T1 construct: made in house; host or cells: E. coli hmp deletion strain AG103 carrying pUC19hmp
Protocol: Figure S5. H2O2 sensitivity of the flavoHb-NOD. NOD activity of flavoHb is rapidly lost upon exposure to H2O2 (panel A), and heme absorbance decreases with H2O2 exposure (panel B). The peroxidizable substrate ascorbate and the heme ligand miconazole (6) afford protection thus […]
(A) FlavoHb (0.1 µM heme) […]
was exposed to 0 (○), 50 (◼) or 200 µM H2O2 (●). Catalase (1000 U/mL) was added at various times to terminate reactions, and NOD activity was measured as described under Experimental Procedures. (B) Ferric flavoHb (5 µM heme) was exposed to 200 µM H2O2, and spectra were recorded at 2 min intervals (solid lines) or after a 10 min exposure in the presence of 2 mM ascorbate (dashed line) or 10 µM miconazole (dotted line). Reactions were at 37°C in 50 mM potassium phosphate buffer, pH 7.8, containing 0.1 mM EDTA. Error bars represent the S.D. of […]
(1 picture or pasted object on this page, not shown here)

E. coli flavoHb-NOD [1] = target: E. coli flavoHb-NOD (Escherichia coli, UniProt P24232, K84N); conditions: 1000 U of catalase
Protocol: (§1) NOD activity was measured amperometrically in 100 mM phosphate buffer, pH 7.0, containing 0.3 mM EDTA, 100 μg/ml bovine serum albumin (BSA) (Fraction V), 100 μM NADH, 0.1 μM FAD with NO, O2, and N2 mixtures added as described ([4], [72]). NADH oxidase activity was followed spectrophotometrically at 340 nm in a 1.0-ml cuvette containing 90 mM Tris chloride buffer, pH 8.2, 100 μM NADH, 200 μM O2, 0.1 μM FAD, 100 μg/ml BSA, and 0.3 mM EDTA and incubated at 37 °C. Cytochrome b5 reductase activity was assayed at 37 °C by following the rate of absorbance increase at 555 nm in a 1.0-ml reaction buffered with 90 mM Tris chloride, pH 8.2, and containing 10 μM ferric cytochrome b5, 200 μM O2, 20 μM NADH, 0.1 μM FAD, 100 μg/ml BSA, and 0.3 mM EDTA. TMAO reductase activity was assayed by following the absorbance decrease at 340 nm in a 1.0-ml anaerobic reaction containing 12 U Aspergillus niger glucose oxidase, 5 mM glucose, 260 U catalase, 400 mM TMAO, 100 μM NADH, 0.1 μM FAD, 100 μg/ml BSA, and 0.3 mM EDTA in 90 mM Tris chloride pH 8.2 and incubated at 37 °C. Ngb reductase activity was assayed by following the absorbance increase at 424 nm in a 1.0-ml anaerobic reaction containing 12 U glucose oxidase, 5 mM glucose, 260 U catalase, 5 μM Ngb, 50 μM NADH, 0.1 μM FAD, 100 μg/ml BSA, and 0.3 mM EDTA in 90 mM Tris chloride buffer, pH 8.2, and incubated at 37 °C. Methyl viologen reductase activity was assayed by following the formation of the blue cation radical at 603 nm and by applying an extinction coefficient of 13,300 M^−1 cm^−1 in a 1.0-ml anaerobic reaction buffered with 10 mM potassium phosphate, pH 7.0, and containing 12 U glucose oxidase, 5 mM glucose, 260 U catalase, 100 μM NADH, 0.1 μM FAD, 100 μg/ml BSA, 0.3 mM EDTA, and 200 mM sodium chloride and incubated at 37 °C. NO reductase activity was assayed amperometrically at 37 °C in a 1.0-ml anaerobic reaction containing 2 μM NO, 100 μM NADH, 0.1 μM FAD, 12 U glucose oxidase, 5 mM glucose, 260 U catalase, 100 μg/ml BSA, and 0.3 mM EDTA buffered with 10 mM potassium phosphate pH 7.0. CO effects were tested at a final concentration of 50 μM as diluted from a 1 mM stock in water. All activities are reported relative to the heme content of flavoHb.

E. coli flavoHb-NOD [2] = target: E. coli flavoHb-NOD (Escherichia coli, UniProt P24232); assay type: biochemical; parameters: made in house; host or cells: E. coli hmp deletion strain AG103 carrying pUC19hmp
Description: We have formulated a steady-state velocity equation for the catalytic cycle with the activating trigger step (KT) (Equation 1).(1) v= Vmax(a) where a=([NO]^2[O2]^2/K1K2K3KTK4)/(1+([O2]/K1)+([O2]^2/K1K2)+(([O2]^2[NO])/K1K2K3)+(([O2]^2[NO])/K1K2K3KT)+(([O2]^2[NO]^2)/K1K2K3KTK4))
(2) v= Vmax(a)(b) where b=[NO]/(K3+([NO](1+((K2/[O2])(1+([NO]/Ki(NO)))))))
In addition, we have introduced a factor and equilibrium constant Ka(O2) for rare situations in which O2 causes an additional NO-independent activation of catalysis possibly by occupying unique binding sites or cavities (Equation 5).
as §1
Rate constants were estimated from the model kinetic equation using Python programming with successive approximations to optimize fits with varying NO and O2 concentrations. Vmax, K1, K2, KT, and Kii(NO) values were treated as independent variables for a given flavoHb while allowing K3, K4, and Ki(NO) to vary over limited ranges with varying O2 concentration. Kii(NO) was estimated from NO inhibition at saturating O2 concentrations.

[3] = target: flavoHb heme (Fe^2+ / Fe^3+) (Escherichia coli, UniProt P24232)
Protocol: (§2) FAD and heme reduction were monitored by following the changes in flavoHb absorbance at 460 and 430 nm, respectively, with stopped-flow rapid mixing of 50 μM NADH and 10 μM flavoHb in N2-purged buffer ([4]). O2, NO, and CO association rate constants were determined by photolyzing 50 μM of the respective ferrous flavoHb species with a 300-ns pulse from a 577-nm laser and by spectrophotometrically following ligand reassociation in O2-, NO-, or CO-saturated buffer unless otherwise indicated ([4], [5]). […] Binding of NO was measured by the change of absorbance at 422 nm by applying a difference extinction coefficient of 0.040 μM^−1 cm^−1. O2 and CO dissociation rate constants were determined by stopped-flow rapid mixing with either CO or NO displacement ([4], [5]). The cuvette path length was 1.0 cm. All reactions were at 20 °C in filtered 100 mM sodium phosphate buffer, pH 7.0, containing 0.3 mM EDTA. Catalase (1000 U/ml) was included in all reactions containing O2 to scavenge H2O2 produced by the NADH oxidase activity of flavoHb and to regenerate O2.

[4] = target: flavoHb heme (Fe^2+ / Fe^3+) (Escherichia coli, UniProt P24232, Q53H); conditions: HisE7 variant; 100 μM CO
Protocol: as §2

[5] = target: flavoHb heme (Fe^2+ / Fe^3+) (Escherichia coli, UniProt P24232, Y29F); conditions: PheB10 variant; 100 μM CO
Protocol: as §2

TMAO reductase activity = assay type: biochemical; conditions: CO 50 μM; AsnF7 variant
E. coli flavoHb-NOD [6] = conditions: read-out: Ki(CO); cited from earlier work

O=C1O[C@H]([C@@H](O)CO)C(O)=C1O [ascorbate]
protection of flavoHb-NOD against H2O2 (flavoHb-NOD): protect

Catalase
protection of AsnF7 NOD activity from inactivation (E. coli flavoHb-NOD [1]): modest protection

O=O [O2]
inhibition by O2 with respect to NO (E. coli flavoHb-NOD [2]): no competitive inhibition
selectivity for O2 over N2 (E. coli flavoHb-NOD [2]): greater than 80 fold

Clc1ccc(COC(Cn2ccnc2)c2ccc(Cl)cc2Cl)c(Cl)c1 (stereo not shown) [miconazole]
protection of flavoHb-NOD against H2O2 (flavoHb-NOD): protect

OO [H2O2]
effect of H2O2 on flavoHb-NOD activity (flavoHb-NOD; 50 or 200 µM H2O2): sensitive

nitric oxide [NO]
inhibition of NOD activity by NO (E. coli flavoHb-NOD [2]; 1:100 ratio of NO to O2, reversible, competitive with O2): roughly 50%

[C-]#[O+] [CO, reference compound]
inhibition of fast phase of O2 rebinding [3]: ~10%
inhibition of slow phase of O2 rebinding [3]: 86%
inhibition of O2 migration and binding in the slow phase [4]: ~50%
inhibition of O2 migration and binding in the slow phase [5]: ~50%
inhibition of TMAO reduction (TMAO reductase activity): ~90%
Ki (E. coli flavoHb-NOD [6]): ~1000 nM
